Source: article PMC12494099, “Discovery and Characterization of Novel IKZF1/3 Glue Degraders against Multiple Hematological Cancer Cell Lines” (Oncology Research, 2025)

Assays:
SALL4 = molecular target: T1, SALL4 (Homo sapiens, UniProt Q9UJQ4); assay: MS-based quantitative proteomics in NCI-H929 cells; assay type: cell-based; settings: NCI-H929, 10 µM
T1 construct: endogenous in cells; host or cells: NCI-H929
Procedure: (§1) NCI-H929 cells were treated with either 10 μM DMSO or 10 μM MGD-C9 for 4 h. Post-treatment, the cells were washed with PBS (pH = 7.2–7.4, 1×) and then lysed in 8M Urea (UA) (comprising 8M urea, 100 mM Tris-HCl, pH = 8.0). Subsequently, the cell lysate was subjected to centrifugation on a high-speed freezing microcentrifuge (#CF1524R; SCILOGEX, Meriden, CT, USA) at […], and the supernatant was collected. Subsequently, the collected supernatant was treated with 10 mM tris (2-carboxyethyl) phosphine hydrochloride (TCEP) to reduce it for 30 min. Following this, cysteine alkylation was performed using 50 mM 2-chloroacetamide (CAA) for an additional 30 min. The denatured proteins were then digested with trypsin (1 μg/μL) at an enzyme-to-protein ratio of 1:50 and incubated at 37°C overnight. The reaction was stopped by adding 0.1% formic acid (FA). The samples were desalted using 100 μL pipette tips packed with C18 discs (3M, Saint Paul, MN, USA). Prior to sample loading, the tips were conditioned sequentially with 80 μL of acetonitrile (ACN), followed by 80 μL of a 1:1 (v/v) mixture of H2O and ACN, and finally with 80 μL of H2O. The conditioned tips were loaded with peptides. Then, they were washed twice with 80 μL of H2O. After that, the peptides were eluted twice using 80 μL of a solution composed of 50% water and 50% acetonitrile (ACN). The resulting eluates were vacuum-dried and then reconstituted in 0.1% formic acid for the subsequent LC-MS/MS analysis.
(§2) The peptide mixtures were analyzed using an EASY-nLC 1200 liquid chromatography system (Thermo Fisher Scientific, WLM, MA, USA) equipped with a custom-made 15 cm C18 column (150 μm ID, 1.9 μm particle size, 100 Å pore size). Peptide separation was performed over a 75-min gradient at a constant flow rate of 600 nL/min. The gradient profile was as follows: 4%–7% buffer B (1 min), 7%–13% buffer B (6 min), 13%–25% buffer B (38 min), 25%–45% buffer B (22 min), 45%–95% buffer B (1 min), followed 95% buffer B (7-min). The buffers used were Buffer A (0.1% formic acid) and Buffer B (0.1% formic acid in 80% acetonitrile). The peptide mixtures were then analyzed using a Q Exactive HF mass spectrometer (Thermo Fisher Scientific). MS data were acquired in data-dependent acquisition (DDA) mode with a dynamic exclusion duration of 15 s. MS1 scans were acquired in positive-ion mode across a mass-to-charge (m/z) range of 300–1400, with a resolution of 120,000 (at m/z 200) and a maximum injection time of 50 ms. Precursor ions were fragmented using higher-energy collision dissociation (HCD) at 27% normalized collision energy. MS2 spectra were collected with an AGC target of 5.0 × 10^4 and a maximum injection time of 20 ms.
(§3) Label-free MS raw data were processed using MaxQuant (v2.4) against the UniProt Human database (https://www.uniprot.org/, downloaded May 2024; 20,434 entries). A strict false discovery rate (FDR) threshold of ≤0.01 was applied at the spectra, protein, and modification levels. Contaminants and reverse database hits were excluded. Default settings were used for all other parameters. Protein groups output by MaxQuant were further analyzed in R (v4.2.1). Student’s t-test, and p-values < 0.01 were considered statistically significant for statistical analyses and a volcano plot was generated with GraphPad Prism 8.0.

IKZF1 = molecular target: T2, IKZF1 (Homo sapiens, UniProt Q13422+Q96SW2); assay: MS-based quantitative proteomics in NCI-H929 cells; assay type: cell-based; settings: NCI-H929, 10 μM, 4 h
T2 construct: endogenous in cells; host or cells: NCI-H929
Procedure: as §1, §2, §3

T1 sequence (Q96SW2 whole entry partner): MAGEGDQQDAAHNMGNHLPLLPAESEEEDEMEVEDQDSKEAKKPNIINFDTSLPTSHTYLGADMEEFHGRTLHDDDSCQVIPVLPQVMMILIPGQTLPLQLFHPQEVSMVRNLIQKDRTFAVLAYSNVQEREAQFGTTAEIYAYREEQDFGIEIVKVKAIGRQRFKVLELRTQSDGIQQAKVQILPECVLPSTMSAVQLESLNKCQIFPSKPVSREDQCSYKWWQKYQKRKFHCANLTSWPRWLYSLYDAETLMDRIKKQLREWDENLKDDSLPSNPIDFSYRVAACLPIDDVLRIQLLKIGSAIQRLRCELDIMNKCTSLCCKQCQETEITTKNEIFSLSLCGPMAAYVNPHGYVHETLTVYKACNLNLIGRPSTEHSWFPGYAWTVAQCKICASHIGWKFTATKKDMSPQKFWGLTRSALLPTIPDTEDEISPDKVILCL
T1 sequence (Q16531 whole entry partner): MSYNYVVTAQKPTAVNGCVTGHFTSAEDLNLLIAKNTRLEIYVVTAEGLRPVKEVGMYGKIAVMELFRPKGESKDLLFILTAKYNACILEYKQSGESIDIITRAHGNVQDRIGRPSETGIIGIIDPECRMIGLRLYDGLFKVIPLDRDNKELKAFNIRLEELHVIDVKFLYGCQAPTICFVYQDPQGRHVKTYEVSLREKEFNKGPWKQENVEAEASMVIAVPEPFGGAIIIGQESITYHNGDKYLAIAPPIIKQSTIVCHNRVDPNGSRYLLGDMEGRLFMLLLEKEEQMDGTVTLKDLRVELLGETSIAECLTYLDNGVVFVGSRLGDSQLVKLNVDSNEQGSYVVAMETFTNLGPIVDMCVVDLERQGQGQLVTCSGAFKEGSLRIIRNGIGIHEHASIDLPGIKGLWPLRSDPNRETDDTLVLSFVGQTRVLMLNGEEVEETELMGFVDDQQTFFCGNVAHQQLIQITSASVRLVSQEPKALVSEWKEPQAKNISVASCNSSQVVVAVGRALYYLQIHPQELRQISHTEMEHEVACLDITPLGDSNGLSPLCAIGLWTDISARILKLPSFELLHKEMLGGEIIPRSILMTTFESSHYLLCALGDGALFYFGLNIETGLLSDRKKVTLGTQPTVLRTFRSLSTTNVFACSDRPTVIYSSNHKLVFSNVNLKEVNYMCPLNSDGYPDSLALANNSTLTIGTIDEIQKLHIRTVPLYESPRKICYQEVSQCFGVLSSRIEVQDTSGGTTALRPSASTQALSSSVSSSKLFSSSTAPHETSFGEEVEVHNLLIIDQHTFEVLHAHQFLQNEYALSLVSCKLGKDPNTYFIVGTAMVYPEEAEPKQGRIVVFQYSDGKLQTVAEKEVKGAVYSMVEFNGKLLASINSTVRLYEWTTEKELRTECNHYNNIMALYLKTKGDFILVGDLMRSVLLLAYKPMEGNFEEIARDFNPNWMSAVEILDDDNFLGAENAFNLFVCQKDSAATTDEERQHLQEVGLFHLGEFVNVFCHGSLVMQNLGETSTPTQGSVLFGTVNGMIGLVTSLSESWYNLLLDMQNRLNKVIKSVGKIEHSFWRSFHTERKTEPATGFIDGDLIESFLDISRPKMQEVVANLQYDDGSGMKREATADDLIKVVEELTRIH
T1 sequence (Q9UJQ4 whole entry): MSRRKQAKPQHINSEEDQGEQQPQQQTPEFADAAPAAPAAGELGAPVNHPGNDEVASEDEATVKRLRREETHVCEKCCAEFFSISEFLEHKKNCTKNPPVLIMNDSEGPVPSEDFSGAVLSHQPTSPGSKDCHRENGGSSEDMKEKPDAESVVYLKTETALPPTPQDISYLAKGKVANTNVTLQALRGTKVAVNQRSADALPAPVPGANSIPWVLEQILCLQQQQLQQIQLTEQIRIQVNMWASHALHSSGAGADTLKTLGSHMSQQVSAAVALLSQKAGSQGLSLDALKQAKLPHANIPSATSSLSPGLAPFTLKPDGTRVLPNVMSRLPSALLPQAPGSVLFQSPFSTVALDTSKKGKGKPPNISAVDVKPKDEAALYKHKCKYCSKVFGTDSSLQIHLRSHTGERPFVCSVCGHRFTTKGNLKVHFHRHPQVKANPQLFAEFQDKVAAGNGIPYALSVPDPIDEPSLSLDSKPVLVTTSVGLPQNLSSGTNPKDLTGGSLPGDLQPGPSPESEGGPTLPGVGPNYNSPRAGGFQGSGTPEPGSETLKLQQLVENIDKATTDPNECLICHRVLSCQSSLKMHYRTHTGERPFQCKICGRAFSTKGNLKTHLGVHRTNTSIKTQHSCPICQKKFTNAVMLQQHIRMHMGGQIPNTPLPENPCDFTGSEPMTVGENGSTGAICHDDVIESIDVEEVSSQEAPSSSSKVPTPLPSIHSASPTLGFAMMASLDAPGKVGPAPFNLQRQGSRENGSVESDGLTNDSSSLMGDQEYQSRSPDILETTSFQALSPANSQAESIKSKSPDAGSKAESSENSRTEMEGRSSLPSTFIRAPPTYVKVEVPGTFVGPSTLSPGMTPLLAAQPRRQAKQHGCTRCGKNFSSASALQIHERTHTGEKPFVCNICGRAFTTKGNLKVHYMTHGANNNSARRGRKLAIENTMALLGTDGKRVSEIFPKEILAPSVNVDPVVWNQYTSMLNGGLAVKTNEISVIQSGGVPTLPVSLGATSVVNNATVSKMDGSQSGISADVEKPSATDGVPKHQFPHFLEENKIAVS
T2 sequence (Q13422 whole entry): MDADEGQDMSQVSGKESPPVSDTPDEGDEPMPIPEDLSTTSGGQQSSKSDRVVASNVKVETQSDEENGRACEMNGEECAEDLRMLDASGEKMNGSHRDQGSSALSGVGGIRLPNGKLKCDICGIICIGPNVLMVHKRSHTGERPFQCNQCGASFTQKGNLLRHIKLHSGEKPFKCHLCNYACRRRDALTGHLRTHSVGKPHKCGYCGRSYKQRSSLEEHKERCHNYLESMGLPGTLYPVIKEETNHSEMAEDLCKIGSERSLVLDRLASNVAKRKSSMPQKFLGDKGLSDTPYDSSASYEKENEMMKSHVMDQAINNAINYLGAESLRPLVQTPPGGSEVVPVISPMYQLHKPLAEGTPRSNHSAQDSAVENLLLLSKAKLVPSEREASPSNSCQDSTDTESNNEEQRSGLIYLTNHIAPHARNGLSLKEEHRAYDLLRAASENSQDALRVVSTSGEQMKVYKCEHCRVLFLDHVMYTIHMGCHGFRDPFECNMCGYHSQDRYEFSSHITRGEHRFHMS
T2 sequence (Q96SW2 whole entry): as the sequence (Q96SW2 whole entry partner) above
T2 sequence (Q16531 whole entry partner): as the sequence (Q16531 whole entry partner) above

`CN1CCN(Cc2cccc(C(=O)NC3CCC(=O)NC3=O)c2F)C(=O)C1` (centres unmarked) [MGD-C9, N-(2,6-dioxopiperidin-3-yl)-2-fluoro-3-((4-methyl-2-oxopiperazin-1-yl)methyl)benzamide] was tested, and the “SALL4 level (proteomics)” value (SALL4) was “remained unaffected” and the “reduction of IKZF1 (proteomics)” value (IKZF1) was “approximately 75.1%”.
